T1: colipase dependent pancreatic lipase (Sus scrofa, UniProt P00591)
T1 sequence (P00591 1-450): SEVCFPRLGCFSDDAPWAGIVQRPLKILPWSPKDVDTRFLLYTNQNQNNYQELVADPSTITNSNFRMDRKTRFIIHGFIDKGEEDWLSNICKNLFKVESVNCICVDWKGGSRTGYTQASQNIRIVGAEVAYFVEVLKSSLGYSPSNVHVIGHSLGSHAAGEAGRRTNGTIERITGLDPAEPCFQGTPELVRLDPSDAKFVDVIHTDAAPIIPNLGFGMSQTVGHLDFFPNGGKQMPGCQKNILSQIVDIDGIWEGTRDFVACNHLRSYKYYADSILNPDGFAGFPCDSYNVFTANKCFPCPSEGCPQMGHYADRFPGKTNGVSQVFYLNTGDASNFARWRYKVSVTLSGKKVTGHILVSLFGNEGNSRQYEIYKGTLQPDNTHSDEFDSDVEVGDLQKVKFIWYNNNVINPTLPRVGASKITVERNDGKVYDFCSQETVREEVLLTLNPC
T1 sequence (P02703 23-112 partner): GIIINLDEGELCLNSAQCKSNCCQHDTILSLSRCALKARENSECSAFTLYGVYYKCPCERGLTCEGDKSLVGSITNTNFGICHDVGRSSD

B1: recombinant gastric lipase: recombinant dog gastric lipase (Merispase, Meristem) (protein, UniProt P80035 20-398, looked up)
Gastric triacylglycerol lipase: LFGKLHPTNPEVTMNISQMITYWGYPAEEYEVVTEDGYILGIDRIPYGRKNSENIGRRPVAFLQHGLLASATNWISNLPNNSLAFILADAGYDVWLGNSRGNTWARRNLYYSPDSVEFWAFSFDEMAKYDLPATIDFILKKTGQDKLHYVGHSQGTTIGFIAFSTNPKLAKRIKTFYALAPVATVKYTETLLNKLMLVPSFLFKLIFGNKIFYPHHFFDQFLATEVCSRETVDLLCSNALFIICGFDTMNLNMSRLDVYLSHNPAGTSVQNVLHWSQAVKSGKFQAFDWGSPVQNMMHYHQSMPPYYNLTDMHVPIAVWNGGNDLLADPHDVDLLLSKLPNLIYHRKIPPYNHLDFIWAMDAPQAVYNEIVSMMGTDNK

Columns and labels:
[1] = biological target: T1, colipase dependent pancreatic lipase; assay: Intestinal lipolysis of triolein emulsions by colipase dependent pancreatic lipase or pancreatine; type: biochemical, pig; conditions: for yield of pancreatic lipolysis (percentage of hydrolysis) compared with PC P/O emulsion: normal physiological conditions, two forms of pig pancreatic lipase (pure lipase or powder of pancreas), FIG. 3
Excerpt: (§1) The compounds have been tested in vitro in different experimental conditions for their ability to promote the action of three major lipolytic enzymes of the digestive tract, i.e., gastric lipase, colipase-dependent pancreatic lipase, bile salt stimulated lipase (BSSL), and their isoforms and variants.
(§2) Different lipidic emulsions have been prepared by sonication of a mixture of triolein (TO) (98.7%), cholesterol (0.5%) and phospholipids (0.8%).
(§3) The lipolysis tests have been carried out in vitro in conditions that mimic the physiology of the human digestive tract, either healthy or with pancreatic insufficiency (PI).
Intestinal lipolysis in the presence of colipase dependent pancreatic lipase (lipase/colipase 1/1 molar ratio) or of pig pancreatic extract (pancreatine) was conducted at pH […] at 37° C. for 15 minutes, with a pancreatic lipase (U/mL)/micromoles of TO ratio of 20, and in the presence of pig bile in sufficient quantity for a bile salt concentration of 2 or 8 mM.
(§4) Lipolysis by the three main digestive tract lipases has also been tested in more complex conditions, i.e. in the presence of lipidic emulsions with a mixture of proteins plus lactose added in proportions that are found in normal or medically assisted nutrition.

[2] = test system: gastric lipase; assay: Gastric lipolysis of triolein emulsions stabilized by phospholipids, with purified gastric lipases or gastric juices; type: biochemical, human
Excerpt: as §1, §2, §3
Gastric lipolysis in the presence of gastric lipase has been carried out with purified lipases or gastric juices from different subjects at pH 5.40, at 37° C. for 60 minutes with a gastric lipase (U/mL)/lipids (micromoles of TO) ratio of 2.
as §4

[3] = test system: bile salt stimulated lipase (BSSL); assay: Intestinal lipolysis of triolein emulsions by bile salt stimulated lipase; type: biochemical, human
Excerpt: as §1, §2, §3
[…] Several variants of BSSL have been tested, numbered 1 to 8.
as §4

[4] = cited from earlier work
[5] = gastric juices of different subjects, irrespective of the origin of gastric juice, FIG. 2
[6] = gastric juices of subject, pH 5.40, 37° C., 60 minutes, FIG. 1
[7] = conditions of pancreatic insufficiency, mixture of pure bile salts, FIG. 6

| Molecule | yield of pancreatic lipolysis (percentage of hydrolysis) compared with PC P/O emulsion [1] | yield of gastric lipolysis (percentage of hydrolysis) compared with the control CT emulsion [2, 5] | yield of gastric lipolysis (percentage of hydrolysis) compared with the control CT emulsion [2, 6] | yield of lipolysis by BSSL (percentage of hydrolysis) compared with PC P/O emulsion [3, 7] | yield of lipolysis by BSSL (percentage of hydrolysis) compared with PC P/O emulsion ([3]; normal conditions, FIG. 4) | further results |
| --- | --- | --- | --- | --- | --- | --- |
| lysophosphatidylserine [LPS] | significantly higher |  |  |  |  |  |
| egg-derived lysophosphatidylcholine [LPCO] |  | significantly higher | significantly higher | significantly higher | significantly higher |  |
| DHA phosphatidylethanolamine [PE DHA] |  |  |  | significantly higher | significantly higher |  |
| CCCCCCCC/C=C\CCCCCCCC(=O)OC[C@@H](O)COP(=O)(O)O [LPAo, oleyl lysophosphatidic acid] |  |  | significantly higher |  |  |  |
| lysophosphatidylinositol [LPI] | significantly higher | significantly higher | significantly higher | significantly higher | significantly higher | effect of the dose of LPI on the yield of gastric lipolysis of the LHO emulsion ([2]; LPI 0.1, 0.4 and 0.8% of total lipids, total phospholipids 0.8% of total lipids, gastric juices of subjects, FIG. 12): increase with increasing concentrations of LPI; yield of gastric lipolysis (percentage of hydrolysis) compared with PC P/O and complex PC P/O ([2]; different human gastric juices, simple emulsions and complex emulsions (lactose and milk proteins), FIG. 7): significantly higher; activator effect in the presence of a mixture of protein plus lactose ([2]; gastric lipase, complex environment compared with simple emulsion): identical or even maximized; quantity at which the activator effect seems optimal ([2]; gastric lipolysis of LHO/LPI emulsions, dose dependent): 0.8 % of total lipids; effect on gastric lipase degraded at its N-terminal end (yield of gastric lipolysis vs CT and/or PC P/O) ([2]; purified gastric lipases or juices of different subjects with different degrees of N-terminal degradation, FIG. 10): reactivates degraded gastric lipase; yield of pancreatic lipolysis (percentage of hydrolysis) compared with PC P/O ([1]; conditions of pancreatic insufficiency, purified lipase, intestinal pH values typical of pancreatic insufficiency, FIG. 5): significantly higher; activator effect in the presence of a mixture of protein plus lactose ([1]; pancreatic lipase, complex environment compared with simple emulsion): identical or even maximized; activator effect in the presence of a mixture of protein plus lactose ([3]; BSSL, complex environment compared with simple emulsion): identical or even maximized; activator effect on different variants of BSSL (1 to 8) compared with PC P/O ([3]; normal conditions (A) or conditions of pancreatic insufficiency (B), efficacy varies with type of BSSL, FIG. 11): confirmed; yield of lipolysis by BSSL (percentage of hydrolysis) compared with PC P/O and complex PC P/O ([3]; purified human BSSL, pH 7.00, bile salts 8 mM (normal) or 2 mM (pancreatic insufficiency), with or without lactose and milk proteins, FIG. 9): significantly higher |
| B1 |  |  |  |  |  | increase of the absorption level of lipids ([4]; administered together with pancreatic extracts, in 7 of the 11 patients studied): 17%; rate of absorption of lipids ([4]; subjects suffering from cystic fibrosis, alone, 600 mg/day, 28% without supplement): 50% |

Reference: patent US20100196586A1, “FOODSTUFF COMPOSITION TO IMPROVE DIGESTIBILITY OF FOODSTUFF LIPIDS” (ISL-INNOVATION SANTE LIPIDES, priority 2007, published 2010)
